Test results as given in the supplement of paper PMC4862054.

How the values were obtained:
Test in all cases: drug sensitivity score (DSS), CellTox Green (DSS (AUC-based score)); higher = stronger drug effect (viability inhibition or cytotoxicity); extreme values may be limits of the assay
Conditions in all cases: incubation time: 72 h
[1] = system: MDA-MB-436
Summary of the method: (§1)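 Breast cancer cells were seeded into 384-well plates containing compound at 5 concentrations in 10-fold steps over a compound-specific 10,000-fold range and incubated 72 h. After CellTox Green and CellTiter-Glo readings, each plate was normalised to 0.1 % DMSO and a positive kill control. The drug sensitivity score rests on the area under the fitted dose-response curve.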

[2] = system: HDQ-P1
Summary of the method: as §1

[3] = system: DU-4475
Summary of the method: as §1

[4] = system: MFM-223
Summary of the method: as §1

[5] = system: MDA-MB-453
Summary of the method: as §1

[6] = system: CAL-85-1
Summary of the method: as §1

[7] = system: Hs578T
Summary of the method: as §1

[8] = system: BT-474
Summary of the method: as §1

[9] = system: MCF-10A
Summary of the method: as §1

[10] = system: CAL-51
Summary of the method: as §1

[11] = system: MDA-MB-231
Summary of the method: as §1

[12] = system: HCC1599
Summary of the method: as §1

[13] = system: MDA-MB-468
Summary of the method: as §1

[14] = system: HCC1143
Summary of the method: as §1

[15] = system: BT-549
Summary of the method: as §1

[16] = system: CAL-120
Summary of the method: as §1

[17] = system: HCC1937
Summary of the method: as §1

[18] = system: CAL-148
Summary of the method: as §1

SMILES	drug sensitivity score [1]	drug sensitivity score [2]	drug sensitivity score [3]	drug sensitivity score [4]	drug sensitivity score [5]	drug sensitivity score [6]	drug sensitivity score [7]	drug sensitivity score [8]	drug sensitivity score [9]	drug sensitivity score [10]	drug sensitivity score [11]	drug sensitivity score [12]	drug sensitivity score [13]	drug sensitivity score [14]	drug sensitivity score [15]	drug sensitivity score [16]	drug sensitivity score [17]	drug sensitivity score [18]
CNC(=O)c1ccccc1Sc1ccc2c(/C=C/c3ccccn3)n[nH]c2c1 [Axitinib]	0	0	0	0	0	0	0	0	0	6.53	0	0	0	0	0	0	0	2.44
COc1cc(Nc2c(C#N)cnc3cc(OCCCN4CCN(C)CC4)c(OC)cc23)c(Cl)cc1Cl [Bosutinib]	2.19	3.06	0	0	1.6	8.13	3.59	5.18	7.8	5.81	7.99	0.637	5.02	0	1.47	0	1.87	2.51
CCN(CC)CCCC(C)Nc1ccnc2cc(Cl)ccc12 (configuration not stated) [Chloroquine]	8.96	5.48	1.64	9.2	9.85	7.92	8.48	14.7	7.9	3.75	11.6	2.54	27.3	0	1.78	4.62	5.9	11.8
CC1(COc2ccc3c(c2)ncn3-c2ccc3cccc(N4CCC(N)CC4)c3n2)COC1 [Crenolanib]	18.5	7.06	0.612	0	0	6.6	0	5.99	5.3	4.42	6.39	0	0	1.14	4.07	0	0	6.78
CC(C)(C)c1nc(-c2cccc(NS(=O)(=O)c3c(F)cccc3F)c2F)c(-c2ccnc(N)n2)s1 [Dabrafenib]	0	1.28	3.29	0	0	0	18.1	0	0	0	0	0	0	0	0	0	1.11	1.13
Cc1nc(C(=O)NCC(=O)O)c(O)c2ccc(Oc3ccccc3)cc12 [FG-4592]	0	0	0	0	0	0	0	0	0	0	0	0	0	0	0	0	0	0
CC(C)(C)NC(=O)[C@H]1CC[C@H]2[C@@H]3CC[C@H]4NC(=O)C=C[C@]4(C)[C@H]3CC[C@]12C [Finasteride]	0	0	0	3.14	0	0	2.04	0	0	0	0	0	0	0	0	0	0	0
Nc1ccn([C@@H]2O[C@H](CO)[C@@H](O)C2(F)F)c(=O)n1 [Gemcitabine]	0	0	0	0	0	4.04	0	0	0	13.4	0	0	19.7	0	0	0	0	11.2
O=C(O)CNC(=O)c1c(O)c2ccccc2n(Cc2ccccc2)c1=O [IOX-2]	0	3.99	0	0	1.5	0	0	0	0	0	0	0	0	0	2.91	0	0	0
CC(=O)[C@]1(O)Cc2c(O)c3c(c(O)c2[C@@H](O[C@H]2C[C@H](N)[C@H](O)[C@H](C)O2)C1)C(=O)c1ccccc1C3=O [Idarubicin]	0	0	0.488	1.56	0	8.04	0	4.95	1.59	9.49	0	0	10.5	0	0	0	0	12.7
C/C(=C\c1csc(C)n1)[C@@H]1C[C@@H]2O[C@]2(C)CCC[C@H](C)[C@H](O)[C@@H](C)C(=O)C(C)(C)[C@@H](O)CC(=O)N1 [Ixabepilone]	0	0	0	0	0	4.02	0	0	0	11.7	0.915	0	1.3	0	5.33	0	0	0
C=CCn1c(=O)c2cnc(Nc3ccc(N4CCN(C)CC4)cc3)nc2n1-c1cccc(C(C)(C)O)n1 [MK1775]	13.8	9.56	0	5.91	0	16.5	9.43	6.62	8.71	15.7	19.8	4.9	11.1	3.3	9.39	4.54	0	21.1
CN(Cc1cnc2nc(N)nc(N)c2n1)c1ccc(C(=O)N[C@@H](CCC(=O)O)C(=O)O)cc1 [Methotrexate]	2.33	0	0	0	0.671	0.579	7.51	0	0	0	0	0	0	1.72	0	0	0	0
CO[C@@]12[C@H](COC(N)=O)C3=C(C(=O)C(C)=C(N)C3=O)N1C[C@@H]1N[C@@H]12 [Mitomycin C]	0	0.392	0	1.79	0	0	0.971	0	0	17.2	0	0	27.4	1.5	0	0	0	1.72
CCNC(=O)c1noc(-c2cc(C(C)C)c(O)cc2O)c1-c1ccc(CN2CCOCC2)cc1 [NVP-AUY922]	0	6	5.69	0	0.086	9.49	6.88	3.93	13.6	6.99	12.6	0	0	0	0	0.256	0.92	12.7
Cc1cn(-c2cc(NC(=O)c3ccc(C)c(Nc4nccc(-c5cccnc5)n4)c3)cc(C(F)(F)F)c2)cn1 [Nilotinib]	0	0	0	0	0	0	0.546	0	0	0	3.55	0	0	0	1.71	0	0	0
CC[C@H](CO)Nc1nc(NCc2ccccc2)c2ncn(C(C)C)c2n1 [Seliciclib]	0	0	0	1.03	0	0	1.26	0	0	0	0	0	0	0	0	0	0	0
O=[N+]([O-])c1ccc2c(c1)S(=O)(=O)C=C2 [Stattic]	6.1	2.09	0	16.3	2.97	19.7	18.1	15.9	19.5	16.9	11.6	0	19.8	6.3	19.8	2.06	25	9.88
O=C(CCCCCCC(=O)Nc1ccccc1)NO [Vorinostat]	0	0	0	0	0	0	4.59	2.68	0	6.5	8.86	0	2.22	1.23	0.875	2.58	0	1.45
